Results as given in patent US5849494A, “Methods for sensitive detection of reverse transcriptase” (priority 1996, dated 1998).

Key:
[1] = target: T1, RT of group O reference isolate MVP5180 (Human immunodeficiency virus type 1 group O, UniProt Q79666); test: Amp-RT assay of RT activity of HIV-1 group O isolate with or without nevirapine; format: biochemical; details: nevirapine at 100 μM, culture supernatant
T1 construct: measure the enzymatic activity of RT of these viruses
Procedure: (§1) To measure the sensitivity of group M and group O viruses to nevirapine (Boehringer Mannheim), the Amp-RT assay as described herein was used to measure the enzymatic activity of RT of these viruses in the presence or absence of the drug. Ten microliters of culture supernatants were added to 40 μl of RT buffer containing 10 ng of RNA template, 10 units of Rnasin (Promega, Wis.), 0.06% NP-40, 100 ng of the antisense primer EMCR2 (SEQ ID NO:2), 0.8 mM EGTA, 2 mM dithiothreitol, 50 mM Tris-HCl, 10 mM MgCl2 and 200 μM of each dNTP with or without 100 μM of nevirapine. The reaction was incubated at 37° C. for one hour and heated at 95° C. for ten minutes. The products of the RT reaction were PCR amplified for 35 cycles at 95° C. for one minute, 55° C. for one minute and 72° C. for one minute after the addition of 50 μl of PCR buffer containing 2.5 units of Taq polymerase, 100 ng of sense primer EMCF1': 5'[…]3' (SEQ ID NO:10). Twenty microliters of the reaction product was electrophoresed in 1.8% agarose gels and Southern blot hybridized to ^32 P-end labeled internal probe EMCP1 (SEQ ID NO:3). For qualitative detection, blots were exposed on autoradiographic film for 12-16 hours. For quantitative detection, blots were exposed for 3-6 hours and their radioactivities were read and measured by a Phosphor Imager (Model # 400E, Molecular Dynamics, Inc., CA). […]

[2] = target: RT in group M sera (HIV-1 M:B_HXB2R, UniProt P04585); details: 10 group M-infected persons; unprocessed 2 μl serum samples
Procedure: (§2) Plasma samples from 55 HIV-1 infected persons, ten seroconversion panels and 100 uninfected controls were studied. Two micoliter volumes of unprocessed plasma were tested in duplicate by the Amp-RT protocol as described above. The viral load was determined from a standard curve generated by known numbers of recombinant HIV-1 RT molecules and was expressed as equivalents of recombinant RT (rRT) molecules/ml. For comparison, RNA virus loads were also determined by the NASBA commercial assay (Organon).
(§3) To measure the sensitivity of group M and group O viruses to nevirapine (Boehringer Mannheim), the Amp-RT assay as described herein was used to measure the enzymatic activity of RT of these viruses in the presence or absence of the drug. Ten microliters of culture supernatants were added to 40 μl of RT buffer containing 10 ng of RNA template, 10 units of Rnasin (Promega, Wis.), 0.06% NP-40, 100 ng of the antisense primer EMCR2 (SEQ ID NO:2), 0.8 mM EGTA, 2 mM dithiothreitol, 50 mM Tris-HCl, 10 mM MgCl2 and 200 μM of each dNTP with or without 100 μM of nevirapine. […] For quantitative detection, blots were exposed for 3-6 hours and their radioactivities were read and measured by a Phosphor Imager (Model # 400E, Molecular Dynamics, Inc., CA). […]
(§4) Applicability to serum screening was evaluated in 10 group O-infected and 10 group M-infected persons.

[3] = target: RT of group M viruses (HIV-1 M:B_HXB2R, UniProt P04585); details: nevirapine at 100 μM; 21 group M reference isolates of A through F subtypes; culture supernatants
Procedure: as §1

[4] = target: T2, RT in group O sera (HIV-1 O_MVP5180, UniProt Q79666); test: Direct Amp-RT assay of sera from group O-infected persons with or without nevirapine; format: biochemical, HIV-1 group O; details: 10 group O-infected persons; unprocessed 2 μl serum samples
T2 construct: Amp-RT with EMCV RNA template
Procedure: as §2, §3, §4

Cc1ccnc2c1NC(=O)c1cccnc1N2C1CC1 [nevirapine] was tested, and the “Sensitivity of group O reference isolate to nevirapine (Amp-RT)” value [1] was “resistant”, the “Amp-RT result of group M sera with nevirapine” value [2] was “positive only in the absence of nevirapine” and the “Effect on Amp-RT activity of group M reference isolates” value [3] was “inhibit”. The “Amp-RT result of group O sera with nevirapine” value [4] was “Amp-RT positive in the presence and absence of nevirapine”.
